In assay [1] the target is T1, hCB1 (Homo sapiens, UniProt P21554). Kind of assay: Cerep HTRF cAMP inhibition assay, hCB1 CHO-K1 cells. In kind it is cell-based. As to the method:
The hCB1 CHO-K1 cells are suspended in HBSS buffer (Invitrogen) complemented with 20 mM HEPES (pH 7.4), then distributed in microplates at a density of 5.103 cells/well in the presence of either of the following: HBSS (basal control), the reference agonist at 30 nM (stimulated control) or the test compounds. […] Following 30 min incubation at 37°C, the cells are lysed, and the fluorescence acceptor (D2-labeled cAMP) and fluorescence donor (anti-cAMP antibody labeled with europium cryptate) are added. […] Each measurement was done in triplicate.

The target in assay [2] is T1, hCB1. In words: DiscoverX PathHunter β-arrestin-2 recruitment assay. In kind it is cell-based. The method, then: PathHunter cell lines (CHO-K1 lineage expressing hCB1) were expanded from freezer stocks according to standard procedures. Cells were seeded in a total volume of 20 μL into white walled, 384-well microplates and incubated at 37°C for the appropriate time prior to testing. For agonist determination, cells were incubated with sample to induce response. Intermediate dilution of sample stocks was performed to generate 5X sample in assay buffer. 5 μL of 5X sample was added to cells and incubated at 37°C or room temperature for 90 to 180 minutes. Vehicle concentration was 1%. […] Microplates were read following signal generation with a PerkinElmer EnvisionTM instrument for chemiluminescent signal detection. Compound activity was analyzed using CBIS data analysis suite (ChemInnovation, CA).
The data were analyzed in GraphPad Prism 9.1 using “dose–response-stimulation log(agonist) versus response (four parameters)” and data were presented as EC50 or pEC50 ± CIs of one independent experiment in duplicate.
In general terms: Recruitment of arrestin is a read-out of receptor activation apart from second messengers.

In assay [3] the test system is melatonin-1 (MT1R), ghrelin (GHSR), Sigma1 and peripheral benzodiazepine receptors. Kind of assay: PDSP off-target secondary validation (dose response) assays. In kind it is cell-based. The note with it: read-out: EC50 at off-target receptors (weak partial agonism). As to the method:
Compound ‘4042 was tested at 10 μM for off-target activity against a panel of 320 non-olfactory GPCRs using PRESTO-Tango GPCRome arrestin-recruitment assay, as described. Receptors with at least three-fold increased relative luminescence over corresponding basal activity are potential positive hits, and were tested in dose response follow-up studies. Compound ‘4042 was further tested at 1 μM for off-target activity at a panel of 45 common GPCR and non-GPCR drug targets. Receptors with at least 50% displaced radioligand are potential positive hits and were tested in dose response follow-up studies. Screening was performed by the National Institutes of Mental Health Psychoactive Drug Screen Program (PDSP)[81].

The next assay relates to C56BL/6 mice. In words: CFA-induced inflammatory pain model, Hargreaves test. Particulars: 0.2 mg/kg i.p. It counts as in vivo, mouse. The method, then:
Hindpaw mechanical thresholds were determined with von Frey filaments using the up-down method. […] Each training has three sessions of five min. each.
The CFA model of chronic inflammation was induced as described previously. Briefly, CFA (Sigma) was diluted 1:1 with saline and vortexed for 30 min. When fully suspended, we injected 20 μL of CFA into one hindpaw. Heat thresholds were measured before the injection (baseline) and 3 days after the injection using the Hargreaves test.

By EC50 is commonly meant the midpoint of the concentration-response curve. For orientation: Emax means the size of the effect at its maximum, as opposed to the concentration needed.

T1 sequence (P21554 whole entry): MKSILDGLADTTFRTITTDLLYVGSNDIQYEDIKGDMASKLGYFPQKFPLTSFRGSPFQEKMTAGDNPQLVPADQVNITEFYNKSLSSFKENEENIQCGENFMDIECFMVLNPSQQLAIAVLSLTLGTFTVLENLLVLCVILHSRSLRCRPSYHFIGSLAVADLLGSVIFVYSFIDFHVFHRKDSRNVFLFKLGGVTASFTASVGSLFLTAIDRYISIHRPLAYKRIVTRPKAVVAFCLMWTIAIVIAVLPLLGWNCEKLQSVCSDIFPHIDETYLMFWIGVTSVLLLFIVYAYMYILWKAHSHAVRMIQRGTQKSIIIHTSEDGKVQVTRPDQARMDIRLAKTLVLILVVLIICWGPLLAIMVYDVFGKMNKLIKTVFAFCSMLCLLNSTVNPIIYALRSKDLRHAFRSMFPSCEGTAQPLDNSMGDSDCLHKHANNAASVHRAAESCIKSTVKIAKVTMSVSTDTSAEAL

As for `COC(=O)C(C)(NC(=O)c1cc(C)n(-c2cccc(C(F)(F)F)c2)n1)c1cccs1` (stereo not shown) [‘4042], the EC50 was 8 pM on hCB1 [1], 2.3 nM at hCB1 [2] (hCB1 DiscoverX ß-arrestin recruitment EC50 [95% CI]), 2 nM on hCB1 [2] (hCB1 DiscoverX ß-arrestin recruitment pEC50 [95% CI]) and over 1000 nM in assay [3]. In addition, the maximal response (Emax) came out at 96% at hCB1 [1] (CHO-K1, read-out: hCB1 Cerep cAMP Emax [95% CI]) and 71% at hCB1 [2] (read-out: hCB1 DiscoverX ß-arrestin recruitment Emax [95% CI]). Moreover, the “effect on paw withdrawal latency after CFA” value in the assay on C56BL/6 mice is listed as “analgesic”.

(Values after publication doi:10.1101/2023.02.27.530254, “Large library docking for cannabinoid-1 receptor agonists with reduced side effects” (bioRxiv, 2024).)
